Experimental data published in patent publication US20250099405A1, “COMPOSITIONS, METHODS, AND DEVELOPMENT OF ARID4B INHIBITORS” (University of Kentucky Research Foundation, priority 2022, published 2025).

Target: T1, ARID4B binding to H3K4me3 (Homo sapiens, UniProt Q4LE39)
T1 construct: His; made in house; host or cells: Sf9
T1 sequence (Q4LE39 1-1312): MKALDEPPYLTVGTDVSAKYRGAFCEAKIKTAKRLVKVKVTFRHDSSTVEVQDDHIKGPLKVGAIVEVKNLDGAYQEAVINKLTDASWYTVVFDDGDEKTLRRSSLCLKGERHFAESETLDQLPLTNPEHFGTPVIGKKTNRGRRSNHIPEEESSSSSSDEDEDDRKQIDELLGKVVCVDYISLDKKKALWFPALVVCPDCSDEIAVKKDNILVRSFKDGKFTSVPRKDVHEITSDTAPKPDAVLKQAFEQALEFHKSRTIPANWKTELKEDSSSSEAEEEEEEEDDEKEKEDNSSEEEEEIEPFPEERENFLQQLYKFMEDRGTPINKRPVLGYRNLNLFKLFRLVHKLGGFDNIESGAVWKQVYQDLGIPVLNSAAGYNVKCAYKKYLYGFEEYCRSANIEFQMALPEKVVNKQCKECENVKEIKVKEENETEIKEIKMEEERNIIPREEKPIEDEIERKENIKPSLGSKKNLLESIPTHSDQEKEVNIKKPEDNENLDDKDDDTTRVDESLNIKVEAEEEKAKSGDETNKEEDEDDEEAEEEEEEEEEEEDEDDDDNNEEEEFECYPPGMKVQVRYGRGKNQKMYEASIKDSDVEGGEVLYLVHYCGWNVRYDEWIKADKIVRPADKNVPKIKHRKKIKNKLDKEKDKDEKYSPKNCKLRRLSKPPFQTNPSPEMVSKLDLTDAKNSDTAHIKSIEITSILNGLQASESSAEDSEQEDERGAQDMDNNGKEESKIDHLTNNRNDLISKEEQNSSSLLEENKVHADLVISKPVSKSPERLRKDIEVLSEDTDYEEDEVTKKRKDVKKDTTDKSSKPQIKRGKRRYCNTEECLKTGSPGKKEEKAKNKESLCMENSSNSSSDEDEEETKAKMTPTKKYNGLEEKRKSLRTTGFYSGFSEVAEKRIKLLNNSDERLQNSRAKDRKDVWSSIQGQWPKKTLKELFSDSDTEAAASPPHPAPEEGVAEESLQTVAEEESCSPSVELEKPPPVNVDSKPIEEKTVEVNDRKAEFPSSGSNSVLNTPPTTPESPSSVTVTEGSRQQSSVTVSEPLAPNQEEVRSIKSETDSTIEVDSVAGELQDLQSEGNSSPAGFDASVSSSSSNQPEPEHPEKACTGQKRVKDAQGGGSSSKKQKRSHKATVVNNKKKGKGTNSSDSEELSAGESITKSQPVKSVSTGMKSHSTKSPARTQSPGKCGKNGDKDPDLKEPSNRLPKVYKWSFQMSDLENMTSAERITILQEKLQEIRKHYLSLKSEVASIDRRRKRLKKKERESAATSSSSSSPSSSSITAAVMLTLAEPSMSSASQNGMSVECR
Test: Histone peptide binding assay
Conditions: His-ARID4B pre-incubated with compound
Method: His-ARID4B was pre-incubated with RWR-18 as indicated followed by histone peptide binding assays.
Histone peptide binding assays were used to determine that ARID4B binds to which methylated lysine. Full-length His-ARID4B and deletion mutants expressed in Sf9 were purified by Ni-NTA affinity resin (FIG. 20A). To determine which methylated lysine ARID4B binds, full-length His-ARID4B was incubated with biotinylated histone H3 peptides tri-methylated at the K4, K9, K27, K36 or K79. The corresponding unmethylated H3 peptides were used as controls ([…]). […] Next, the ARID4B deletion mutants were used to determine domain(s) of ARID4B responsible for binding to H3K4me3. Deletion of Tudor and chromo domains impaired binding to H3K4me3 (FIG. 20C, compare lanes 3, 4, and 7).
Since RWR-18 targets the chromodomain of ARID4B, which is important for binding to H3K4me3 (FIG. 20), it was tested whether RWR-18 interferes with binding of H3K4me3 using histone peptide binding assays as described above.

In the case of `O=C(COc1ccc(OCc2ccccc2)cc1)NCCCN1CCOCC1` [RWR-18], the “binding of ARID4B to H3K4me3” value is reported as “inhibited”.
